Key:
[1] = Oxygen scavenging efficacy (real-time orbisphere oxygen sensor); details: 500 ppm
Procedure: Oxygen scavenging efficacy was evaluated using a real-time orbisphere oxygen sensor with data logging. The test equipment consisted of a stirrer plate and stirrer bar, a 1 liter test cell, circulation pump, flow chamber, oxygen sensor and data logger. Test work was performed using potable water taken from the mains water supply in The Woodlands, Tex. and then using filtered seawater taken from Galveston, Tex. Testing was performed at 4° C. and 25° C. by wrapping the test cell with a monoethylene glycol circulator chiller jacket. A carbon steel stirrer bar was added to the test cell to replicate turbulence that would be created upon pumping the hydrotest fluid using the metallurgy of a typical pipeline. A non-pulsing circulation pump was set to circulate the test fluid past the oxygen sensor at a rate of 10 mL·min^−1. The oxygen sensor was calibrated prior to every new test run. Each test was run for a duration of 60 minutes with a 10 minute stabilization period prior to the introduction of test chemical. Chemical was injected into the test cell by means of a needle and syringe through a rubber stopper to minimize any oxygen ingress during this stage of the test. Throughout the test, oxygen levels were measured once every minute and the data continuously logged.
All tests of the new formulations (detailed in Table 1) were benchmarked against has 50% ADMAC (specifically […]), 30% ammonium bisulfite and 20% water, herein referenced as Formulation 3 and detailed in Table 1. Furthermore ammonium bisulfite was used as a benchmark and the activity matched up to 30% which is the concentration used in all the formulations. Therefore all testing had the same concentration of oxygen scavenging component with the only variable being the other components of the formulation.
It should be noted that all testing was performed so that the concentration of oxygen scavenger was exactly the same in all tests so the only variables were the counter components in the formulations, this isolating the effects that combining components has upon the oxygen scavenging efficacy of the invented products. Therefore all formulations were added at 500 ppm. […] Furthermore, adding a dye into the formulation as well as the DDAC and DDABC, as is the case with Formulation 1, has no further negative effects on oxygen scavenging efficacy. It should be noted that scavenging in relatively warm seawater is not a very challenging environment to perform this testing in.

[2] = test system: General Heterotrophic Bacteria (GHB); experiment: Most Probable Number (MPN) bacterial kill efficacy, GHB; type: cell-based, mixed consortia isolated from seawater; details: first MPN set; for GHB per mL: formulation with ammonium bisulfide, 500 ppm active biocide; for log reduction of planktonic GHB: exposure time of 24 hours
Procedure: (§1) The Most Probably Number technique using a bacterial enumeration technique was performed, as described in NACE International Standard TMP 194-2004. Complex mixed consortia were isolated from seawater and subjected to the chemicals being tested. All chemicals were applied at the same active concentration. Surviving cells were assayed after exposure periods of 1, 7 and 28 days to the numbers compared with a control which received no treatments. The bottle tests were carried out using two mixed consortia—Sulfate Reducing Bacteria (SRB) and General Heterotrophic Bacteria (GHB) that also measured Acid Producing Bacteria (APB) enriched from seawater. Aliquots of the water (1 mL) were inoculated into SRB culture medium and GHB culture medium (Phenol Red Dextrose broth) respectively and sub-cultured twice. The cultures used in the tests were incubated at 30° C. for five days; these were then used to supplement seawater to achieve 10^3 to 10^4 SRB cells per mL. For the trial one control bottle and four test bottles were set up. The chemicals were added to the appropriate test bottles to give the final concentrations of each product as supplied. All chemicals were added so that 500 ppm of active biocide was present in each test. The control bottle contained seawater only with no added chemical.
(§2) At each time point, (one, seven and twenty-eight days), a sample was removed from each test bottle and the control bottle and used to inoculate the MPN vials. Bacterial counts were performed using the triplicate Most Probable Number method (triplicate MPNs). The inoculated MPN vials were incubated at 30° C. for 7 days for GHB and APB and 28 days for SRB. Results have been reported as cells per mL. […]

[3] = test system: Acid Producing Bacteria (APB); experiment: Most Probable Number (MPN) bacterial kill efficacy, APB; type: cell-based, mixed consortia isolated from seawater; details: first MPN set; for APB per mL: formulation with ammonium bisulfide, 500 ppm active biocide; for log reduction of APB numbers: exposure time of 24 hours
Procedure: as §1, §2

[4] = test system: Sulfate Reducing Bacteria (SRB); experiment: Most Probable Number (MPN) bacterial kill efficacy, SRB; type: cell-based, mixed consortia isolated from seawater; details: first MPN set; for SRB per mL: formulation with ammonium bisulfide, 500 ppm active biocide; for log reduction of planktonic SRB: exposure time of 24 hours
Procedure: as §1, §2

## N.O=S(O)O [ABS 30%, ammonium bisulfite]
[1]; fresh water, 25° C., time 0 minutes (stabilization before chemical injection)
  Oxygen level (ppm O2): 8.314 ppm O2
[1]; fresh water, 25° C., time 2 minutes (stabilization before chemical injection)
  Oxygen level (ppm O2): 8.346 ppm O2
[1]; fresh water, 25° C., time 4 minutes (stabilization before chemical injection)
  Oxygen level (ppm O2): 8.310 ppm O2
[1]; fresh water, 25° C., time 6 minutes (stabilization before chemical injection)
  Oxygen level (ppm O2): 8.265 ppm O2
[1]; fresh water, 25° C., time 8 minutes (stabilization before chemical injection)
  Oxygen level (ppm O2): 8.345 ppm O2
[1]; fresh water, 25° C., time 10 minutes (end of 10 minute stabilization)
  Oxygen level (ppm O2): 8.302 ppm O2
[1]; fresh water, 25° C., time 12 minutes
  Oxygen level (ppm O2): 7.612 ppm O2
[1]; fresh water, 25° C., time 14 minutes
  Oxygen level (ppm O2): 6.674 ppm O2
[1]; fresh water, 25° C., time 16 minutes
  Oxygen level (ppm O2): 5.585 ppm O2
[1]; fresh water, 25° C., time 18 minutes
  Oxygen level (ppm O2): 4.732 ppm O2
[1]; fresh water, 25° C., time 20 minutes
  Oxygen level (ppm O2): 4.115 ppm O2
[1]; fresh water, 25° C., time 22 minutes
  Oxygen level (ppm O2): 3.765 ppm O2
[1]; fresh water, 25° C., time 24 minutes
  Oxygen level (ppm O2): 3.195 ppm O2
[1]; fresh water, 25° C., time 26 minutes
  Oxygen level (ppm O2): 3.027 ppm O2
[1]; fresh water, 25° C., time 28 minutes
  Oxygen level (ppm O2): 2.546 ppm O2
[1]; fresh water, 25° C., time 30 minutes
  Oxygen level (ppm O2): 1.863 ppm O2
[1]; fresh water, 25° C., time 32 minutes
  Oxygen level (ppm O2): 1.516 ppm O2
[1]; fresh water, 25° C., time 34 minutes
  Oxygen level (ppm O2): 1.173 ppm O2
[1]; fresh water, 25° C., time 36 minutes
  Oxygen level (ppm O2): 0.857 ppm O2
[1]; fresh water, 25° C., time 38 minutes
  Oxygen level (ppm O2): 0.654 ppm O2
[1]; fresh water, 25° C., time 40 minutes
  Oxygen level (ppm O2): 0.436 ppm O2
[1]; fresh water, 25° C., time 42 minutes
  Oxygen level (ppm O2): 0.349 ppm O2
[1]; fresh water, 25° C., time 44 minutes
  Oxygen level (ppm O2): 0.215 ppm O2
[1]; fresh water, 25° C., time 46 minutes
  Oxygen level (ppm O2): 0.134 ppm O2
[1]; fresh water, 25° C., time 48 minutes
  Oxygen level (ppm O2): 0.119 ppm O2
[1]; fresh water, 25° C., time 50 minutes
  Oxygen level (ppm O2): 0.096 ppm O2
[1]; fresh water, 25° C., time 52 minutes
  Oxygen level (ppm O2): 0.087 ppm O2
[1]; fresh water, 25° C., time 54 minutes
  Oxygen level (ppm O2): 0.063 ppm O2
[1]; fresh water, 25° C., time 56 minutes
  Oxygen level (ppm O2): 0.055 ppm O2
[1]; fresh water, 25° C., time 58 minutes
  Oxygen level (ppm O2): 0.050 ppm O2
[1]; fresh water, 25° C., time 60 minutes
  Oxygen level (ppm O2): 0.480 ppm O2
[1]; seawater, 4° C., time 0 minutes (stabilization before chemical injection)
  Oxygen level (ppm O2): 7.554 ppm O2
[1]; seawater, 4° C., time 2 minutes (stabilization before chemical injection)
  Oxygen level (ppm O2): 7.452 ppm O2
[1]; seawater, 4° C., time 4 minutes (stabilization before chemical injection)
  Oxygen level (ppm O2): 7.357 ppm O2
[1]; seawater, 4° C., time 6 minutes (stabilization before chemical injection)
  Oxygen level (ppm O2): 7.268 ppm O2
[1]; seawater, 4° C., time 8 minutes (stabilization before chemical injection)
  Oxygen level (ppm O2): 7.121 ppm O2
[1]; seawater, 4° C., time 10 minutes (end of 10 minute stabilization)
  Oxygen level (ppm O2): 6.997 ppm O2
[1]; seawater, 4° C., time 12 minutes
  Oxygen level (ppm O2): 2.125 ppm O2
[1]; seawater, 4° C., time 14 minutes
  Oxygen level (ppm O2): 0.454 ppm O2
[1]; seawater, 4° C., time 16 minutes
  Oxygen level (ppm O2): 0.269 ppm O2
[1]; seawater, 4° C., time 18 minutes
  Oxygen level (ppm O2): 0.064 ppm O2
[1]; seawater, 4° C., time 20 minutes
  Oxygen level (ppm O2): 0.047 ppm O2
[1]; seawater, 4° C., time 22 minutes
  Oxygen level (ppm O2): 0.029 ppm O2
[1]; seawater, 4° C., time 24 minutes
  Oxygen level (ppm O2): 0.009 ppm O2
[1]; seawater, 4° C., time 26 minutes
  Oxygen level (ppm O2): 0.003 ppm O2
[1]; seawater, 4° C., time 28 minutes
  Oxygen level (ppm O2): 0.002 ppm O2
[1]; seawater, 25° C., time 0 minutes (stabilization before chemical injection)
  Oxygen level (ppm O2): 7.112 ppm O2
[1]; seawater, 25° C., time 2 minutes (stabilization before chemical injection)
  Oxygen level (ppm O2): 7.081 ppm O2
[1]; seawater, 25° C., time 4 minutes (stabilization before chemical injection)
  Oxygen level (ppm O2): 7.029 ppm O2
[1]; seawater, 25° C., time 6 minutes (stabilization before chemical injection)
  Oxygen level (ppm O2): 7.084 ppm O2
[1]; seawater, 25° C., time 8 minutes (stabilization before chemical injection)
  Oxygen level (ppm O2): 7.066 ppm O2
[1]; seawater, 25° C., time 10 minutes (end of 10 minute stabilization)
  Oxygen level (ppm O2): 7.061 ppm O2
[1]; seawater, 25° C., time 12 minutes
  Oxygen level (ppm O2): 0.052 ppm O2
[1]; seawater, 25° C., time 14 minutes
  Oxygen level (ppm O2): 0.013 ppm O2
[1]; seawater, 25° C., time 16 minutes
  Oxygen level (ppm O2): 0.010 ppm O2
[1]; seawater, 25° C., time 18 minutes
  Oxygen level (ppm O2): 0.009 ppm O2
[1]; seawater, 25° C., time 20 minutes
  Oxygen level (ppm O2): 0.008 ppm O2
[1]; seawater, 25° C., time 22 minutes
  Oxygen level (ppm O2): 0.007 ppm O2
[1]; seawater, 25° C., time 24 minutes
  Oxygen level (ppm O2): 0.006 ppm O2
[1]; seawater, 25° C., time 26 minutes
  Oxygen level (ppm O2): 0.005 ppm O2
[1]; seawater, 25° C., time 28 minutes
  Oxygen level (ppm O2): 0.004 ppm O2

## CC1(C)C(=O)N(CO)C(=O)N1CO [DMDM hydantoin, 1,3-Bis(hydroxymethyl)-5,5-dimethylimidazoline-2,4-dione]
[2]; 24 h exposure
  GHB per mL: 9.5E+03 cells per mL
[2]; 7 d exposure
  GHB per mL: 9.5E+05 cells per mL
[2]; 28 d exposure
  GHB per mL: 2.5E+05 cells per mL
[2]
  log reduction of planktonic GHB: 1 log
[3]; 24 h exposure
  APB per mL: 4.5E+02 cells per mL
[3]; 7 d exposure
  APB per mL: 2.5E+02 cells per mL
[3]; 28 d exposure
  APB per mL: 9.5E+04 cells per mL
[3]
  log reduction of APB numbers: no effect
[4]; 24 h exposure
  SRB per mL: 9.5E+04 cells per mL
[4]; 7 d exposure
  SRB per mL: 9.5E+02 cells per mL
[4]; 28 d exposure
  SRB per mL: 4.5E+06 cells per mL
[4]
  log reduction of planktonic SRB: no effect

## CN1CSC(=S)N(C)C1 [Dazomat, Tetrahydro-3,5-dimethyl-2H-1,3,5-thiadiazine-2-thione]
[2]; 24 h exposure
  GHB per mL: 4.5E+02 cells per mL
[2]; 7 d exposure
  GHB per mL: 4.5E+03 cells per mL
[2]; 28 d exposure
  GHB per mL: 2.5E+05 cells per mL
[2]
  log reduction of planktonic GHB: 2.5 log
[3]; 24 h exposure
  APB per mL: 2.5E+02 cells per mL
[3]; 7 d exposure
  APB per mL: 2.5E+02 cells per mL
[3]; 28 d exposure
  APB per mL: 4.5E+02 cells per mL
[3]
  log reduction of APB numbers: 0.5 log
[4]; 24 h exposure
  SRB per mL: 2.5E+04 cells per mL
[4]; 7 d exposure
  SRB per mL: 2.0E+02 cells per mL
[4]; 28 d exposure
  SRB per mL: 1.0E+00 cells per mL
[4]
  log reduction of planktonic SRB: did not result in a significant reduction

## CC1CN(CN2COC(C)C2)CO1 (stereo not drawn) [MBMO, N, N′-Methylene bis(5-methyloxazolidine)]
[2]; 24 h exposure
  GHB per mL: 9.5E+03 cells per mL
[2]; 7 d exposure
  GHB per mL: 4.5E+03 cells per mL
[2]; 28 d exposure
  GHB per mL: 2.5E+02 cells per mL
[2]; after 28 days
  further log reduction of GHB numbers: 2 log
[2]
  log reduction of planktonic GHB: 1 log
[3]; 24 h exposure
  APB per mL: 7.5E+02 cells per mL
[3]; 7 d exposure
  APB per mL: 7.5E+02 cells per mL
[3]; 28 d exposure
  APB per mL: 4.5E+01 cells per mL
[4]; 24 h exposure
  SRB per mL: 9.5E+03 cells per mL
[4]; 7 d exposure
  SRB per mL: 4.0E+01 cells per mL
[4]; 28 d exposure
  SRB per mL: 1.0E+00 cells per mL
